# From ChEMBL document CHEMBL1143441, “New classes of Gram-positive selective antibacterials: inhibitors of MRSA and surrogates of the causative agents of anthrax and tuberculosis” (2008)
# Assays:
# Format in all cases: functional
# Bacillus cereus = assay: Antimicrobial activity against Bacillus cereus by NCCLS M7-A6 method
# Staphylococcus aureus [1] = assay: Antimicrobial activity against methicillin-resistant Staphylococcus aureus MC1 by NCCLS M7-A6 method
# [2] = test system: Mycolicibacterium smegmatis; assay: Antimicrobial activity against Mycobacterium smegmatis by NCCLS M7-A6 method
# Escherichia coli = assay: Antimicrobial activity against Escherichia coli by NCCLS M7-A6 method
# Staphylococcus aureus [3] = assay: Antimicrobial activity against Staphylococcus aureus ATCC 29213 by NCCLS M7-A6 method
# [4] = test system: Corynebacterium pseudodiphtheriticum; assay: Antimicrobial activity against Corynebacterium pseudodiphtheriticum by NCCLS M7-A6 method
# Enterococcus faecium [5] = assay: Antimicrobial activity against vancomycin-resistant Enterococcus faecium 14 by NCCLS M7-A6 method
# Listeria monocytogenes = assay: Antimicrobial activity against Listeria monocytogenes by NCCLS M7-A6 method
# Streptococcus pyogenes = assay: Antimicrobial activity against Streptococcus pyogenes by NCCLS M7-A6 method
# Streptococcus agalactiae = assay: Antimicrobial activity against Streptococcus agalactiae by NCCLS M7-A6 method
# Streptococcus pneumoniae = assay: Antimicrobial activity against Streptococcus pneumoniae ATCC 49619 by NCCLS M7-A6 method
# Enterococcus faecium [6] = assay: Antimicrobial activity against vancomycin-resistant Enterococcus faecium 1 by NCCLS M7-A6 method
# [7] = test system: Corynebacterium diphtheriae; assay: Antimicrobial activity against Corynebacterium diphtheriae Tox by NCCLS M7-A6 method
# Bacillus anthracis = assay: Antimicrobial activity against Bacillus anthracis Sterne by NCCLS M7-A6 method
# Streptococcus mitis = assay: Antimicrobial activity against Streptococcus mitis by NCCLS M7-A6 method
# Staphylococcus aureus [8] = assay: Antimicrobial activity against Staphylococcus aureus ATCC 25923 by NCCLS M7-A6 method
# Staphylococcus aureus [9] = assay: Antimicrobial activity against methicillin-resistant Staphylococcus aureus MC2 by NCCLS M7-A6 method
# Corynebacterium xerosis = assay: Antimicrobial activity against Corynebacterium xerosis by NCCLS M7-A6 method
# Priestia megaterium = assay: Antimicrobial activity against Bacillus megaterium by NCCLS M7-A6 method
# Pseudomonas aeruginosa = assay: Antimicrobial activity against Pseudomonas aeruginosa by NCCLS M7-A6 method
# Enterococcus faecalis = assay: Antimicrobial activity against Enterococcus faecalis ATCC 29212 by NCCLS M7-A6 method
# Bacillus subtilis = assay: Antimicrobial activity against Bacillus subtilis by NCCLS M7-A6 method
SMILES,MIC (Bacillus cereus) [µg/mL],MIC (Staphylococcus aureus [1]) [µg/mL],MIC [2] [µg/mL],MIC (Escherichia coli) [µg/mL],MIC (Staphylococcus aureus [3]) [µg/mL],also measured
COc1cc(/C=C/c2cccs2)cc(OC)c1,> 512,> 512,> 512,> 512,> 512,
COc1cc(O)cc(/C=C/Oc2ccccc2C)c1,64,32,> 128,> 512,16,
COc1cc(O)cc(/C=C/c2ccsc2)c1,32,32,64,> 512,32,
COc1cc(/C=C/Oc2ccccc2)cc(OC)c1,> 512,> 512,> 512,> 512,> 512,
COc1cc(/C=C/Oc2cccc(C)c2)cc(OC)c1,> 512,> 512,> 512,> 512,> 512,
COc1cc(/C=C/Oc2ccc(C)cc2)cc(OC)c1,> 512,> 512,> 512,> 512,> 512,
COc1cc(/C=C/Oc2cccc(OC)c2)cc(OC)c1,> 512,> 512,> 512,> 512,> 512,
COc1cc(O)cc(O/C=C/c2ccccc2)c1,64,32,128,> 512,32,
COc1cc(OC)cc(O/C=C/c2ccccc2)c1,> 512,> 512,> 512,> 512,> 512,
COc1cc(O)cc(/C=C/Oc2ccccc2)c1,32,64,128,> 512,32,
COc1cc(O)cc(/C=C/Oc2ccc(C)cc2)c1,64,32,> 128,> 512,16,
COc1ccc(O/C=C/c2cc(O)cc(OC)c2)cc1,64,64,128,> 512,16,
COc1cc(/C=C/Oc2ccccc2C)cc(OC)c1,> 512,> 512,> 512,> 512,> 512,
COc1cc(O)cc(/C=C/Oc2cccc(C)c2)c1,32,32,64,> 512,16,
COc1cc(O)cc(/C=C/Sc2ccccc2)c1,16,32,128,> 512,16,
COc1cc(O)cc(/C=C/Oc2cccc(OC)c2)c1,64,64,128,> 512,16,
COc1cc(O)cc(/C=C/c2cccs2)c1,32,32,128,> 512,16,
COc1cc(/C=C/Sc2ccccc2)cc(OC)c1,> 512,> 512,> 512,> 512,> 512,
COc1ccc(O/C=C/c2cc(OC)cc(OC)c2)cc1,> 512,> 512,> 512,> 512,> 512,
"COc1cc(/C=C/c2ccccc2)cc(OC)c1 [3,5-O-DIMETHYLPINOSYLVIN]",> 512,> 512,> 512,> 512,> 512,
COc1cc(O)cc(/C=C/c2ccccc2)c1 [PINOSYLVIN METHYL ETHER],16,32,64,> 512,32,MIC [4]: 16 µg/mL; MIC (Enterococcus faecium [5]): 16 µg/mL; MIC (Listeria monocytogenes): 32 µg/mL; MIC (Streptococcus pyogenes): 16 µg/mL; MIC (Streptococcus agalactiae): 32 µg/mL; MIC (Streptococcus pneumoniae): 8 µg/mL; MIC (Enterococcus faecium [6]): 16 µg/mL; MIC [7]: 32 µg/mL; MIC (Bacillus anthracis): 8 µg/mL; MIC (Streptococcus mitis): 64 µg/mL; MIC (Staphylococcus aureus [8]): 32 µg/mL; MIC (Staphylococcus aureus [9]): 32 µg/mL; MIC (Corynebacterium xerosis): 16 µg/mL; MIC (Priestia megaterium): 64 µg/mL; MIC (Pseudomonas aeruginosa): > 128 µg/mL; MIC (Enterococcus faecalis): 16 µg/mL; MIC (Bacillus subtilis): 16 µg/mL
